Legend:
RAW264.7 [1] = test: Cytotoxicity against mouse RAW264.7 cells assessed as reduction in cell viability at 100 uM measured after 24 hrs by MTT assay; format: cell-based; conditions: raw264.7, 24 h
RAW264.7 [2] = test: Antiinflammatory activity in mouse RAW264.7 cells assessed as inhibition of LPS-induced NO production pretreated with compound for 2 hrs followed by LPS stimulation measured after 18 hrs by gGriess reagent based assay; format: functional, cell-based

SMILES | IC50 (RAW264.7 [2]) | Activity (RAW264.7 [1])
COc1cc(/C=C/CO)cc(OC)c1O[C@@H]1O[C@H](CO)[C@@H](O)[C@H](O)[C@H]1O [SYRINGIN] | 17.2 µM | Non-Toxic
COc1cc(/C=C/COC/C=C/c2cc(OC)c(O[C@@H]3O[C@H](CO)[C@@H](O)[C@H](O)[C@H]3O)c(OC)c2)cc(OC)c1O[C@@H]1O[C@H](CO)[C@@H](O)[C@H](O)[C@H]1O | > 100 µM | Non-Toxic
COc1cc(/C=C/CO[C@@H]2O[C@H](CO)[C@@H](O)[C@H](O)[C@H]2O)cc(OC)c1O[C@@H]1O[C@H](CO)[C@@H](O)[C@H](O)[C@H]1O | 16.6 µM | Non-Toxic
Cc1ccc(-c2cc(C(F)(F)F)nn2-c2ccc(S(N)(=O)=O)cc2)cc1 [CELECOXIB] | 2.3 µM | –
COc1cc(/C=C/C=O)cc(OC)c1O[C@@H]1O[C@H](CO)[C@@H](O)[C@H](O)[C@H]1O [SINAPALDEHYDE GLUCOSIDE] | > 100 µM | Non-Toxic

Continued, in another order:

IC50 (RAW264.7 [2]) | SMILES | Activity (RAW264.7 [1])
> 100 µM | CCCCOC/C=C/c1cc(OC)c(O[C@@H]2O[C@H](CO)[C@@H](O)[C@H](O)[C@H]2O)c(OC)c1 | Non-Toxic
20.4 µM | COC(=O)/C=C/c1cc(OC)c(O[C@@H]2O[C@H](CO)[C@@H](O)[C@H](O)[C@H]2O)c(OC)c1 | Non-Toxic
18.7 µM | COc1cc(/C=C/C(=O)O)cc(OC)c1O[C@@H]1O[C@H](CO)[C@@H](O)[C@H](O)[C@H]1O | Non-Toxic
> 100 µM | CCOC/C=C/c1cc(OC)c(O[C@@H]2O[C@H](CO)[C@@H](O)[C@H](O)[C@H]2O)c(OC)c1 | Non-Toxic
> 100 µM | COc1cc(CCCO)cc(OC)c1O[C@@H]1O[C@H](CO)[C@@H](O)[C@H](O)[C@H]1O [DIHYDROSYRINGIN] | Non-Toxic
25.1 µM | COc1cc([C@H](O)[C@H](O)CO)cc(OC)c1O[C@@H]1O[C@H](CO)[C@@H](O)[C@H](O)[C@H]1O | Non-Toxic
14.6 µM | COC/C=C/c1cc(OC)c(O[C@@H]2O[C@H](CO)[C@@H](O)[C@H](O)[C@H]2O)c(OC)c1 | Non-Toxic
15.4 µM | COc1cc([C@@H](O)[C@@H](O)CO)cc(OC)c1O[C@@H]1O[C@H](CO)[C@@H](O)[C@H](O)[C@H]1O | Non-Toxic

Source: ChEMBL document CHEMBL4840348, “Total Syntheses and Anti-inflammatory Activities of Syringin and Its Natural Analogues” (J Nat Prod, 2021)
